Test results from patent publication US20080171783A1, “COMPOSITIONS AND METHODS FOR TREATING HYPERPROLIFERATIVE DISEASE” (Migenix Inc., priority 2006, published 2008).
Where two headings read alike, the source gives them in different places.

Assays:
THP-1 = experiment: Cell viability by XTT; details: for Percentage of Cell Control: THP-1, single dose 10 μM, four days
Method: (§1) Compounds were solubilized at […] in DMSO and were stored at −20° C. Test compounds were initially tested at a single concentration of 10 μM and a subset of test compounds were further tested in selected cell lines using a six concentration dose response curve.
(§2) Cell Preparation Cancer cell lines were passaged in T-75 flasks prior to use in the assay in cell culture medium recommended by the ATCC (American Type Culture Collection; Table 6). On the day preceding the assay, the cells were split 1:2 to assure they were in an exponential growth phase at the time of compound treatment. Total cell and viability quantification was performed using a hemocytometer and Trypan Blue dye exclusion. […] The cells were resuspended at the appropriate cell per mL (Table 6) in tissue culture medium and added to the microtitre plates in a volume of 100 μL. Colon cell lines were incubated overnight at 37° C./5% CO2 to allow for cell adherence to the plates.
(§3) Plate Format: Each plate contains cell control wells (cells only), drug calorimetric control wells (drug only) as well as experimental wells (drug plus cells). Samples were tested in triplicate at a concentration of 10 μM and five half-logarithmic dilutions.
(§4) Cell Viability by XTT: Following incubation at 37° C. in a 5% CO2 incubator for four days, the test plates were stained with the tetrazolium dye XTT (2,3-bis(2-methoxy-4-nitro-5-sulfophenyl)-5-[(phenylamino)carbonyl]-2H-tetrazolium hydroxide). XTT-tetrazolium was metabolized by the mitochondrial enzymes of metabolically active cells to a soluble formazan product. XTT solution was prepared daily as a stock of 1 mg/mL in RPMI1640. Phenazine methosulfate (PMS) solution was prepared at 0.15 mg/mL in phosphate buffered saline (PBS) and stored in the dark at −20° C. XTT/PMS stock was prepared immediately before use by adding 40 μL of PMS per mL of XTT solution. Fifty (50) microlitres of XTT/PMS was added to each well of the plate and the plate was reincubated for 4 hours at 37° C. Plates were sealed with adhesive plate sealers and shaken gently or inverted several times to mix the soluble formazan product and the plate was read spectrophotometrically at 450/650 nm with a Molecular Devices Vmax plate reader. […] An Average Response Factor (ARF) was calculated for each compound by averaging the ten Percentage of Control values for the cell lines. […] Deviations below 100% control indicate activity. The concentration of each tested compound is 10 μM.

Jurkat = experiment: Cell viability by XTT; details: for Percentage of Cell Control: single dose 10 μM, four days
Method: as §1, §2, §3, §4

Caco-2 = experiment: Cell viability by XTT; details: for Percentage of Cell Control: Caco-2, single dose 10 μM, four days
Method: as §1, §2, §3, §4

HT29 = experiment: cells; details: for Percentage of Cell Control: HT29, single dose 10 μM, four days
Method: as §1, §2, §3, §4

HCT-15 = experiment: Cell viability by XTT; type: cell-based; details: HCT-15, single dose 10 μM, four days
Method: as §1, §2, §3, §4

HL-60 = experiment: Cell viability by XTT; type: cell-based; details: HL-60, single dose 10 μM, four days
Method: as §1, §2, §3, §4

[1] = test system: 5 Leukemia and 5 Colon Cancer Cell Lines; experiment: Cell viability by XTT, cell line panel; type: cell-based; details: for ARF (Average Response Factor, Average Percentage of Control) / Range (Percentage of Control over the same 10 cell lines): 10 μM; for Range (Percentage of Control over the same 10 cell lines): lowest to highest of the ten cell lines
Method: as §1, §2, §3, §4

Calf polymerase alpha = molecular target: T1, Calf polymerase alpha (Bos taurus, UniProt A0AAA9TD94); experiment: Calf polymerase alpha inhibition (Replizyme kit); type: biochemical; details: at 10 μM, single point screening
T1 construct: purchased Replizyme Ltd (Heslington, York, UK)
T1 sequence (A0AAA9TD94 1-1441): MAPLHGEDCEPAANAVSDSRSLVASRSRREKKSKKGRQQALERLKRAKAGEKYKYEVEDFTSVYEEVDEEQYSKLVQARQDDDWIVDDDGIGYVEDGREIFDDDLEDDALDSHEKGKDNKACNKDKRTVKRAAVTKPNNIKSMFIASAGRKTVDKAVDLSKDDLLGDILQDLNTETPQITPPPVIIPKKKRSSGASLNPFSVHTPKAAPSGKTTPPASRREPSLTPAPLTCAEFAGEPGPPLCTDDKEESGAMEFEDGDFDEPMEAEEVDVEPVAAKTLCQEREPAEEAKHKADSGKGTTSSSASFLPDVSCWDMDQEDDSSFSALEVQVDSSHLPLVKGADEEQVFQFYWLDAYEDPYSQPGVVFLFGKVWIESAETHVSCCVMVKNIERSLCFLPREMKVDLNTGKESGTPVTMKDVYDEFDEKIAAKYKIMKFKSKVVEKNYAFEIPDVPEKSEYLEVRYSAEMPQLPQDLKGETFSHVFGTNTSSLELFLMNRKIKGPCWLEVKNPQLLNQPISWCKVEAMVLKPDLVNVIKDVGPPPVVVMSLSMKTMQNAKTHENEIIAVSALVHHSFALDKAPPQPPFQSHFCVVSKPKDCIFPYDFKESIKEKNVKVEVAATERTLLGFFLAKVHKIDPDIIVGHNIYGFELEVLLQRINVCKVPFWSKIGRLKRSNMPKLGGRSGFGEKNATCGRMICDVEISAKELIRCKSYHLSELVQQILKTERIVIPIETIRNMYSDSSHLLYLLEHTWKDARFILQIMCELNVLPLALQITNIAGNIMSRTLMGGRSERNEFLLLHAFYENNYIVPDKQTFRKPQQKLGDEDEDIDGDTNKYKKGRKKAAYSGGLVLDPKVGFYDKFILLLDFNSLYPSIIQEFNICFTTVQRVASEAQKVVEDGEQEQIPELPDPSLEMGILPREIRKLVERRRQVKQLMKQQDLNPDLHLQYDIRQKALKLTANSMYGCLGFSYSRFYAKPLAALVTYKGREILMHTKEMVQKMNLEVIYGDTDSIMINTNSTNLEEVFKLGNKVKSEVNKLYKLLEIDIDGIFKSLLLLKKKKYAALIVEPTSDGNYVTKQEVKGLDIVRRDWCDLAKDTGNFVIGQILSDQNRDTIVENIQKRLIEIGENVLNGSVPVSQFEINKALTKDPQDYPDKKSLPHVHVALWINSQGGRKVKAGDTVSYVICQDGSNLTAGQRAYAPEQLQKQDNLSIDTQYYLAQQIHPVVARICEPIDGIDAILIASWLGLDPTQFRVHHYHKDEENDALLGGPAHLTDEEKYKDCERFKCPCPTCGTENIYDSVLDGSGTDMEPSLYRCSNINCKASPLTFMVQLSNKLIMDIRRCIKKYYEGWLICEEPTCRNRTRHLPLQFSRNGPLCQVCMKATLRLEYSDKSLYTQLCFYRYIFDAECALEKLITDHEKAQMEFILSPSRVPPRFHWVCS
Method: Calf polymerase alpha and human polymerase alpha investigations were performed with a kit available from Replizyme Ltd (Heslington, York, UK).

[2] = read-out: Activity (TC50), Caco-2, six concentration dose response, Table 9
[3] = average of the ten Percentage of Control values

`Cc1ccc(NC(=O)[C@H](CCCCN)NC(=O)Cc2ccc(-c3ccccc3)cc2)cc1` [Compound 50, (S)-6-AMINO-2-(2-BIPHENYL-4-YL-ACETYLAMINO)-HEXANOIC ACID P-TOLYLAMIDE] was tested, and the “Percentage of Cell Control” value (THP-1) was 89.7%, the “Percentage of Cell Control” value (Jurkat) was 4.6% and the “Percentage of Cell Control” value (Caco-2) was 8.3%. For the same molecule, the CC50 (Caco-2; [2]) was 9.4 µM, the “Percentage of Cell Control” value (HT29) was 27.7% and the “Percentage of Cell Control” value (HCT-15) was 114.3%. The “Percentage of Cell Control” value (HL-60) was 91.7%, the “ARF (Average Response Factor, Average Percentage of Control)” value [1, 3] was 77.7% and the “Range (Percentage of Control over the same 10 cell lines)” value [1] was 4.6 to 122%. The “% Inhibition” value (Calf polymerase alpha) was 71%.

In the case of `NCCCC[C@H](NC(=O)OCC1c2ccccc2-c2ccccc21)C(=O)Nc1ccc(OCc2ccccc2)c(Cl)c1` [Compound 210, (S)-[5-AMINO-1-(4-BENZYLOXY-3-CHLORO-PHENYLCARBAMOYL)-PENTYL]-CARBAMIC ACID 9H-FLUOREN-9-YLMETHYL ESTER], the CC50 (THP-1; Homo sapiens, THP-1, read-out: Activity (TC50)) is reported as 7.7 µM, the “Percentage of Cell Control” value (THP-1) is reported as 0% and the CC50 (Jurkat; Homo sapiens, read-out: Activity (TC50)) is reported as 5.4 µM. For the same molecule, the “Percentage of Cell Control” value (Jurkat) was 9.3%, the “Percentage of Cell Control” value (Caco-2) was 2.4% and the CC50 (Caco-2; Homo sapiens, Caco-2, read-out: Activity (TC50)) was 10 µM. The “Percentage of Cell Control” value (HT29) was 0%, the CC50 (HT29; Homo sapiens, HT-29, read-out: Activity (TC50)) was 9.8 µM and the “Percentage of Cell Control” value (HCT-15) was 71.8%. For the same molecule, the “Percentage of Cell Control” value (HL-60) was 0.4%, the “Range (Percentage of Control over the same 10 cell lines)” value [1] was 0 to 94.0% and the viability at 10 µM ([1]; average of the ten Percentage of Control values, read-out: ARF (Average Response Factor, Average Percentage of Control)) was 41.1%. It also gave an inhibition at 10 µM (Calf polymerase alpha) of 104%.

In the case of `Cc1ccc(NC(=O)[C@H](CCCCN)NCc2ccc(NC(=O)Nc3ccncc3)cc2)cc1` [Compound 262, (S)-6-AMINO-2-[4-(3-PYRIDIN-4-YL-UREIDO)-BENZYLAMINO]-HEXANOIC ACID P-TOLYLAMIDE], the “Percentage of Cell Control” value (THP-1) is reported as 49.4%, the CC50 (THP-1; read-out: Activity (TC50), THP-1, six concentration dose response, Table 9) is reported as 7.9 µM and the CC50 (Jurkat; read-out: Activity (TC50), six concentration dose response, Table 9) is reported as 5.5 µM. For the same molecule, the “Percentage of Cell Control” value (Jurkat) was 3.1%, the “Percentage of Cell Control” value (Caco-2) was 21.6% and the CC50 (Caco-2; [2]) was 8.7 µM. The “Percentage of Cell Control” value (HT29) was 63.8%, the “Percentage of Cell Control” value (HCT-15) was 75% and the “Percentage of Cell Control” value (HL-60) was 53.1%. The “ARF (Average Response Factor, Average Percentage of Control)” value [1, 3] was 69.4%, the “Range (Percentage of Control over the same 10 cell lines)” value [1] was 3.1 to 121.1% and the “% Inhibition” value (Calf polymerase alpha) was 102%.
